Measured values as given in patent US20240300932A1, “N-PHENYLIMINE DERIVATIVE AND PREPARATION METHOD AND USE THEREOF” (Guizhou University, priority 2023, published 2024).

What was measured:
[1] = system: Abutilon theophrasti; test: Post-emergence herbicidal activity test (stem and leaf spray, pot culture); type: in vivo; details: 3 weeks after spraying
Summary of the method: (§1)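 Greenhouse pot-grown weeds (loam, pH 7) sprayed post-emergence at 2- to 3-leaf stage with acetone/Tween 80 formulation plus 1.5 liters/ha methyl oleate, at 10, 5 and 2.5 g/mu. Fresh-weight growth control rated 3 weeks later on 0–5 grade scale.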

[2] = system: Amaranthus retroflexus; test: as above; type: in vivo; details: 3 weeks after spraying
Summary of the method: as §1

[3] = system: Echinochloa crusgalli; test: as above; type: in vivo; details: 3 weeks after spraying
Summary of the method: as §1

[4] = system: Portulaca oleracea; test: as above; type: in vivo; details: 3 weeks after spraying
Summary of the method: as §1

[5] = system: Setaria viridis; test: as above; type: in vivo; details: 3 weeks after spraying
Summary of the method: as §1

[6] = system: Trifoliumre pensL.; test: Post-emergence herbicidal activity test (stem and leaf spray, pot culture); type: in vivo; details: 3 weeks after spraying
Summary of the method: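 Pot-grown weeds in loam (pH 7), greenhouse at 20–30 °C, sprayed once post-emergence at the 2–3-leaf stage. Compound in acetone with Tween 80 plus methyl oleate oil (1.5 L/ha), applied at 10, 5 and 2.5 g/mu by spray tower. Effect scored 3 weeks after spraying, averaged over three repeats.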

| SMILES | Post-emergence herbicidal activity, A. theophrasti (grade) ([1]; dosage 2.5 g/mu) | Post-emergence herbicidal activity, A. theophrasti (grade) ([1]; dosage 5 g/mu) | Post-emergence herbicidal activity, A. theophrasti (grade) ([1]; dosage 10 g/mu) | Post-emergence herbicidal activity, A. retroflexus (grade) ([2]; dosage 2.5 g/mu) | Post-emergence herbicidal activity, A. retroflexus (grade) ([2]; dosage 5 g/mu) | Post-emergence herbicidal activity, A. retroflexus (grade) ([2]; dosage 10 g/mu) | Post-emergence herbicidal activity, E. crusgalli (grade) ([3]; dosage 2.5 g/mu) | Post-emergence herbicidal activity, E. crusgalli (grade) ([3]; dosage 5 g/mu) | Post-emergence herbicidal activity, E. crusgalli (grade) ([3]; dosage 10 g/mu) | Post-emergence herbicidal activity, P. oleracea (grade) ([4]; dosage 2.5 g/mu) | Post-emergence herbicidal activity, P. oleracea (grade) ([4]; dosage 5 g/mu) | Post-emergence herbicidal activity, P. oleracea (grade) ([4]; dosage 10 g/mu) | Post-emergence herbicidal activity, S. viridis (grade) ([5]; dosage 2.5 g/mu) | Post-emergence herbicidal activity, S. viridis (grade) ([5]; dosage 5 g/mu) | Post-emergence herbicidal activity, S. viridis (grade) ([5]; dosage 10 g/mu) | melting point [°C] | Post-emergence herbicidal activity, Trifoliumre pensL. (grade) ([6]; dosage 2.5 g/mu) | Post-emergence herbicidal activity, Trifoliumre pensL. (grade) ([6]; dosage 5 g/mu) | Post-emergence herbicidal activity, Trifoliumre pensL. (grade) ([6]; dosage 10 g/mu) |
| --- | --- | --- | --- | --- | --- | --- | --- | --- | --- | --- | --- | --- | --- | --- | --- | --- | --- | --- | --- |
| O=C(COc1cc(N2C(=O)C3=C(CCCC3)C2=O)c(F)cc1Cl)c1ccccc1F [Compound C4, 2-(4-chloro-2-fluoro-5-(2-oxo-2-(2-fluorophenyl)ethoxy)phenyl)-4,5,6,7-tetrahydro-1H-isoindole-1,3(2H)-dione] | 5 (Grade 5: the growth control rate is greater than or equal to 85%) | 5 (Grade 5: the growth control rate is greater than or equal to 85%) | 5 (Grade 5: the growth control rate is greater than or equal to 85%) | 5 (Grade 5: the growth control rate is greater than or equal to 85%) | 5 (Grade 5: the growth control rate is greater than or equal to 85%) | 5 (Grade 5: the growth control rate is greater than or equal to 85%) | 1 (Grade 1: the growth control rate is greater than or equal to 5% and less than 20%) | 2 (Grade 2: the growth control rate is greater than or equal to 20% and less than 40%) | 3 (Grade 3: the growth control rate is greater than or equal to 40% and less than 60%) | 5 (Grade 5: the growth control rate is greater than or equal to 85%) | 5 (Grade 5: the growth control rate is greater than or equal to 85%) | 5 (Grade 5: the growth control rate is greater than or equal to 85%) | 2 (Grade 2: the growth control rate is greater than or equal to 20% and less than 40%) | 3 (Grade 3: the growth control rate is greater than or equal to 40% and less than 60%) | 4 (Grade 4: the growth control rate is greater than or equal to 60% and less than 85%) | 141 to 143 | 5 (Grade 5: the growth control rate is greater than or equal to 85%) | 5 (Grade 5: the growth control rate is greater than or equal to 85%) | 5 (Grade 5: the growth control rate is greater than or equal to 85%) |
| O=C(COc1cc(N2C(=O)C3=C(CCCC3)C2=O)c(F)cc1Cl)c1ccc(F)cc1F [Compound C12, 2-(4-chloro-2-fluoro-5-(2-oxo-2-(2,4-difluorophenyl)ethoxy)phenyl)-4,5,6,7-tetrahydro-1H-isoindole-1,3(2H)-dione] | 5 (Grade 5: the growth control rate is greater than or equal to 85%) | 5 (Grade 5: the growth control rate is greater than or equal to 85%) | 5 (Grade 5: the growth control rate is greater than or equal to 85%) | 5 (Grade 5: the growth control rate is greater than or equal to 85%) | 5 (Grade 5: the growth control rate is greater than or equal to 85%) | 5 (Grade 5: the growth control rate is greater than or equal to 85%) | 1 (Grade 1: the growth control rate is greater than or equal to 5% and less than 20%) | 2 (Grade 2: the growth control rate is greater than or equal to 20% and less than 40%) | 3 (Grade 3: the growth control rate is greater than or equal to 40% and less than 60%) | 5 (Grade 5: the growth control rate is greater than or equal to 85%) | 5 (Grade 5: the growth control rate is greater than or equal to 85%) | 5 (Grade 5: the growth control rate is greater than or equal to 85%) | 2 (Grade 2: the growth control rate is greater than or equal to 20% and less than 40%) | 3 (Grade 3: the growth control rate is greater than or equal to 40% and less than 60%) | 4 (Grade 4: the growth control rate is greater than or equal to 60% and less than 85%) | 158 to 160 | 5 (Grade 5: the growth control rate is greater than or equal to 85%) | 5 (Grade 5: the growth control rate is greater than or equal to 85%) | 5 (Grade 5: the growth control rate is greater than or equal to 85%) |
| O=C(COc1cc(N2C(=O)C3=C(CCCC3)C2=O)c(F)cc1Cl)c1ccc([N+](=O)[O-])cc1 [Compound C9, 2-(4-chloro-2-fluoro-5-(2-oxo-2-(4-nitrophenyl)ethoxy)phenyl)-4,5,6,7-tetrahydro-1H-isoindole-1,3(2H)-dione] | 5 (Grade 5: the growth control rate is greater than or equal to 85%) | 5 (Grade 5: the growth control rate is greater than or equal to 85%) | 5 (Grade 5: the growth control rate is greater than or equal to 85%) | 5 (Grade 5: the growth control rate is greater than or equal to 85%) | 5 (Grade 5: the growth control rate is greater than or equal to 85%) | 5 (Grade 5: the growth control rate is greater than or equal to 85%) | 1 (Grade 1: the growth control rate is greater than or equal to 5% and less than 20%) | 2 (Grade 2: the growth control rate is greater than or equal to 20% and less than 40%) | 3 (Grade 3: the growth control rate is greater than or equal to 40% and less than 60%) | 5 (Grade 5: the growth control rate is greater than or equal to 85%) | 5 (Grade 5: the growth control rate is greater than or equal to 85%) | 5 (Grade 5: the growth control rate is greater than or equal to 85%) | 2 (Grade 2: the growth control rate is greater than or equal to 20% and less than 40%) | 3 (Grade 3: the growth control rate is greater than or equal to 40% and less than 60%) | 4 (Grade 4: the growth control rate is greater than or equal to 60% and less than 85%) | 148 to 150 | 5 (Grade 5: the growth control rate is greater than or equal to 85%) | 5 (Grade 5: the growth control rate is greater than or equal to 85%) | 5 (Grade 5: the growth control rate is greater than or equal to 85%) |
| O=C1C2=C(CCCC2)C(=O)N1c1cc(OCc2nc(-c3ccc(Cl)nc3Cl)no2)c(Cl)cc1F [Compound A16] | 5 (Grade 5: the growth control rate is greater than or equal to 85%) | 5 (Grade 5: the growth control rate is greater than or equal to 85%) | 5 (Grade 5: the growth control rate is greater than or equal to 85%) | 5 (Grade 5: the growth control rate is greater than or equal to 85%) | 5 (Grade 5: the growth control rate is greater than or equal to 85%) | 5 (Grade 5: the growth control rate is greater than or equal to 85%) | 1 (Grade 1: the growth control rate is greater than or equal to 5% and less than 20%) | 2 (Grade 2: the growth control rate is greater than or equal to 20% and less than 40%) | 3 (Grade 3: the growth control rate is greater than or equal to 40% and less than 60%) | 4 (Grade 4: the growth control rate is greater than or equal to 60% and less than 85%) | 5 (Grade 5: the growth control rate is greater than or equal to 85%) | 5 (Grade 5: the growth control rate is greater than or equal to 85%) | 2 (Grade 2: the growth control rate is greater than or equal to 20% and less than 40%) | 3 (Grade 3: the growth control rate is greater than or equal to 40% and less than 60%) | 4 (Grade 4: the growth control rate is greater than or equal to 60% and less than 85%) |  | 4 (Grade 4: the growth control rate is greater than or equal to 60% and less than 85%) | 5 (Grade 5: the growth control rate is greater than or equal to 85%) | 5 (Grade 5: the growth control rate is greater than or equal to 85%) |
